For seven compounds, TGI, outcome and GI50 results are on record in PubChem BioAssay (NCI).

Where “and” joins values, the source holds several entries; their conditions need not be identical. Equal values may be shown once.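 Protocol summary: plate cells (96-well), add compound at 5 concentrations, incubate 48 h, interpolate endpoints linearly. The concentration for 50% growth inhibition is given as GI50. TGI: total growth inhibition.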 Calls of active or inactive are those of the source. No stated cut-off is given here; in the data, active means GI50 below about 0.43 µM; inactive means the rest.

Among the test systems are DMS 114 small cell lung; HL-60(TB) leukemia; KM12 colon; M19-MEL melanoma; SF-539 CNS; SNB-78 CNS; A549 NSCLC; CAKI-1 renal; HCT-15 colon; RXF-631 renal; HOP-18 NSCLC; BT-549 breast.
Common to all, as to assay: NCI anticancer screen, dose series, 48 h

As to `CCCSc1nc(-c2ccc(OC)cc2)c(C#N)c(=O)n1C1OC(COC(C)=O)C(OC(C)=O)C(OC(C)=O)C1OC(C)=O` (stereo not given), the TGI with DMS 114 small cell lung, in the assay with HL-60(TB) leukemia, with KM12 colon, with M19-MEL melanoma, in the assay with SF-539 CNS and with SNB-78 CNS was > 100 µM in each case.
Take `c1c2c(cc(-n3nnc4c3CCCCCC4)c1-n1nnc3c1CCCCCC3)CCCCCC2`: the outcome with A549 NSCLC and with SF-539 CNS was inactive. For the same compound, the TGI was 7.17 µM in the assay with CAKI-1 renal; 19 µM in the assay on HCT-15 colon; > 100 µM in the assay with HL-60(TB) leukemia; 25.8 µM in the assay on KM12 colon; 25.5 µM in the assay with M19-MEL melanoma; 34.8 µM with RXF-631 renal. For the same compound, in the assay with SNB-78 CNS, the TGI was found to be 39.4 µM.
Consider `CN(C)CC1CCC(CN(C)C)C1=O` (stereo not given), for which the TGI in the assay on A549 NSCLC worked out at 39 µM; in the assay on CAKI-1 renal, 1.95 µM; in the assay with DMS 114 small cell lung, 11.8 µM; in the assay on HCT-15 colon, 4.82 µM; in the assay on HOP-18 NSCLC, 33.2 µM; in the assay with KM12 colon it was 26.7 µM. For the same compound, the TGI with M19-MEL melanoma is 7.96 µM; in the assay with SF-539 CNS it was 33.3 µM; in the assay on SNB-78 CNS, 17.2 µM.
Take `CCOC(=O)/C(O)=C1\C(=O)N(C)C(=O)C1c1cccc(OC)c1` (stereo not given): the TGI in the assay with A549 NSCLC, in the assay with CAKI-1 renal, in the assay with DMS 114 small cell lung, in the assay on HCT-15 colon, in the assay on HL-60(TB) leukemia and in the assay on HOP-18 NSCLC was > 100 µM each time. For the same compound, the TGI with KM12 colon, in the assay on M19-MEL melanoma, with SF-539 CNS and in the assay with SNB-78 CNS was > 100 µM throughout.
With `CN(C)CCC(=O)/C=C\c1ccccc1`, the TGI with A549 NSCLC is 48.3 µM; with CAKI-1 renal it was 32.7 µM; in the assay with DMS 114 small cell lung it was 33.7 µM; in the assay on HCT-15 colon, 30.9 µM; in the assay with HL-60(TB) leukemia it was 36.8 µM; in the assay with HOP-18 NSCLC, 43.5 µM. The TGI with KM12 colon worked out at 29.2 µM; with M19-MEL melanoma, 37.4 µM; in the assay with RXF-631 renal, 60.4 µM; with SF-539 CNS, 30.7 µM; in the assay with SNB-78 CNS it was 37.6 µM.
For `C=C(CN(C)C)C(=O)c1ccccc1[N+](=O)[O-]`, the GI50 with A549 NSCLC is 22.2 µM; in the assay with BT-549 breast it was 24.3 µM; in the assay with CAKI-1 renal, 1.55 µM; with HCT-15 colon, 3.34 µM; with KM12 colon it was 15.6 µM; with SF-539 CNS, 18.6 µM. For the same compound, the TGI in the assay on A549 NSCLC was > 70.5 µM and 41.1 µM; in the assay on BT-549 breast it was 30.6 µM and 60.4 µM; with CAKI-1 renal, 28.2 µM and 2.88 µM; with DMS 114 small cell lung, 39.1 µM; in the assay with HCT-15 colon, 27 µM and 12.6 µM; in the assay on HL-60(TB) leukemia it was 8.2 µM. The TGI is 32.7 µM with HOP-18 NSCLC; 46.1 µM and 37.5 µM with KM12 colon; 32 µM in the assay with M19-MEL melanoma; 34.4 µM in the assay with RXF-631 renal; 71.4 µM and 40.4 µM in the assay on SF-539 CNS; 71.4 µM in the assay on SNB-78 CNS.
`O=C(Nc1noc(-c2ccccc2)n1)c1ccccc1CNc1noc(-c2ccccc2)n1`: the TGI with A549 NSCLC, in the assay with BT-549 breast, in the assay with CAKI-1 renal, in the assay on HCT-15 colon, in the assay with HL-60(TB) leukemia and in the assay on KM12 colon was > 100 µM each time. The TGI with SF-539 CNS was > 100 µM.
